“And” between values parts separate entries of the source, which are not always exact repeats. Identical values can stand only once.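 Cells were grown in 96-well plates and exposed to each compound for 48 hours at five concentrations; endpoints were interpolated linearly between bracketing concentrations, or set to the highest concentration if not reached. GI50 = concentration required for 50% inhibition of growth. The concentration for full growth arrest is given as TGI.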 Where a SMILES comes first, the peptide text is derived from it. Bridges are numbered along the chain shown (N, C = ends). [ ]: non-standard residue; d: D form. The star is where a group is joined. ξ: configuration not given here. ξDab(CH2SO3H) = NC(CCNCS(=O)(=O)O)C(=O)O; Heptanoyl(6-Me) = CC(C)CCCCC(=O)*; Dab = NCC[CH](N)C(=O)O

The source of these data is PubChem BioAssay (NCI).

Holding throughout (assay): inhibition of tumour cell growth, NCI panel, 48 h
Experiment [1] deals with SK-MEL-5 melanoma.
Experiment [2] relates to HOP-92 NSCLC.
Experiment [3] deals with HOP-62 NSCLC.
Experiment [4] deals with SW-620 colon.
The subject of experiment [5] is A549 NSCLC.
The subject of experiment [6] is LOX IMVI melanoma.
Experiment [7] relates to NCI-H522 lung.
Experiment [8] concerns MDA-MB-435.
The subject of experiment [9] is BT-549 breast.
Experiment [10] concerns HS 578T breast.

In the case of `O=C(O)COc1ccc(C(=O)/C(SS/C(C(=O)c2ccc(OCC(=O)O)c(Cl)c2Cl)=C2\C=C(c3ccc(Cl)cc3)SS2)=C2/C=C(c3ccc(Cl)cc3)SS2)c(Cl)c1Cl`, the TGI in experiment [1] was 48.1 µM; in experiment [2], 17.9 µM; in experiment [3], over 100 µM; in [4], 11.5 µM; in [5], 41.7 µM; in experiment [6] it was 15.3 µM. The same molecule came in with a TGI in [7] of 9.54 µM.
In the case of `CCCCNC(=O)C1C(=O)N(CCCC)C(=O)/C1=N\N` (stereo not drawn), the TGI in experiment [1], in experiment [2], in experiment [3], in [4], in experiment [6] and in experiment [7] was over 100 µM throughout.
As to `CCC(C)C1NC(=O)C(CCNCS(=O)(=O)O)NC(=O)C(NC(=O)C(CCNCS(=O)(=O)O)NC(=O)C(NC(=O)C(CCNCS(=O)(=O)O)NC(=O)CCCCC(C)C)C(C)O)CCNC(=O)C(C(C)O)NC(=O)C(CCNCS(=O)(=O)O)NC(=O)C(CCNCS(=O)(=O)O)NC(=O)C(C(C)CC)NC1=O` (stereo not drawn) ({Heptanoyl(6-Me)}-[ξDab(CH2SO3H)]T[ξDab(CH2SO3H)][Dab][ξDab(CH2SO3H)]II[ξDab(CH2SO3H)][ξDab(CH2SO3H)]T; lactam 4-C; configuration not given here), the GI50 in [8] is 0.93 µM; in experiment [1] it was 1.96 µM; in experiment [9], 6.27 µM; in [3], 8.74 µM; in experiment [4] it was 4 µM; in experiment [10], 7.65 µM. Moreover, the figures for the GI50 in experiment [5], in experiment [6] and in [7] were over 25 µM, 5.21 µM and 3.84 µM, respectively. Further, the TGI in experiment [8] was 5.02 µM; in experiment [1], 11.4 µM; in [9], over 25 µM; in experiment [3], over 25 µM; in experiment [4], over 25 µM; in [10], over 25 µM. Further, the TGI was over 25 µM in [5], over 25 µM in experiment [6] and 14.1 µM in [7].
For the molecule `N#CCCCCCOCCOCCOCCOCCOCCCCCC#N`, the TGI in experiment [1], in [3], in experiment [4], in [5], in [6] and in experiment [7] was over 100 µM in each case.
With `Cc1nn2c(nc1=O)sc1ccc3ccccc3c12`, the TGI in experiment [1], in experiment [2], in [3], in experiment [4], in experiment [5] and in [6] was over 100 µM in each case.
With `CCOC(=O)C(N=C(c1ccccc1)c1ccccc1)N(C(=O)OC(C)(C)C)C(=O)OC(C)(C)C` (stereo not drawn), the TGI was over 100 µM in experiment [1]; 66.6 µM in experiment [2]; over 100 µM in experiment [4]; over 100 µM in experiment [5]; over 100 µM in experiment [7].
As for `O=C1NC2C(=CC(O)C(O)C2O)c2cc3c(cc21)OCO3` (stereo not drawn), the TGI in experiment [8] is 0.965 µM; in experiment [1] it was 0.936 µM and 5.01 µM and 1.23 µM; in experiment [3], 1.82 µM and 1.84 µM; in [4], 4.07 µM and 19.9 µM; in [10], 0.55 µM; in [5] it was 6.87 µM and 4.1 µM. Besides, the TGI in [6] was 0.67 µM and 1.53 µM; in [7] it was 0.574 µM and 1.41 µM. The GI50 in experiment [1] is 0.282 µM; in [2], 0.116 µM and 0.171 µM; in experiment [3], 0.277 µM and 0.191 µM; in experiment [4], 0.412 µM and 0.199 µM; in experiment [5], 0.462 µM and 0.273 µM; in experiment [6], 0.115 µM. For the same molecule, in experiment [7], the GI50 is 0.352 µM and 0.105 µM.
Regarding `COc1cc2c(cc1OC)CC(=O)Nc1cc(OC)c(OC)cc1CC2`, the TGI was 71 µM in experiment [1]; over 100 µM in experiment [2]; over 100 µM in experiment [3]; over 100 µM in experiment [4]; over 100 µM in experiment [5]; over 100 µM in experiment [6]. Further, the TGI in experiment [7] was found to be 47.5 µM.
Consider `CC[C@@]1(O)C(=O)OCc2c1cc1n(c2=O)Cc2cc3cccc([N+](=O)[O-])c3nc2-1`, for which the GI50 in [1] is 1.18 µM; in experiment [2], 8.45 µM; in experiment [3], 0.142 µM; in [5] it was 0.6 µM; in experiment [6], 0.429 µM; in experiment [7], 1.04 µM. The TGI in experiment [1] was 2.74 µM; in experiment [2] it was 50.8 µM; in experiment [3] it was 0.582 µM; in experiment [5], 41.5 µM; in experiment [6], 6.14 µM; in experiment [7], 23.3 µM.
As to `COc1ccc2c(c1)[nH]c(=O)c1c3ccccc3cn21`, the GI50 in experiment [1] is 0.0282 µM; in experiment [2] it was 1.01 µM and 2.18 µM; in experiment [9], 0.0549 µM; in experiment [3] it was 0.0312 µM; in experiment [4], 0.0264 µM; in experiment [10], 0.0508 µM. Besides, the results for the GI50 in experiment [5], in [6] and in experiment [7] were 0.067 µM, 0.0712 µM and 0.0597 µM, respectively. The TGI in [1] was 1.17 µM and 0.728 µM; in experiment [2], 15.9 µM; in experiment [9], 2.03 µM and 3.83 µM; in experiment [3], 1.23 µM; in experiment [4] it was 1.42 µM and 1.51 µM; in experiment [10] it was 2.71 µM and 14.1 µM. In addition, the TGI is 1.65 µM and 1.69 µM in [5]; 1.77 µM and 2.09 µM in experiment [6]; 2.28 µM and 1.48 µM in experiment [7].
On to `Nc1nc(N)c(-c2ccccc2)c(C(=O)Nc2ccccc2)n1`, for which the TGI in experiment [1], in experiment [2], in [4], in experiment [5], in experiment [6] and in experiment [7] was over 100 µM in each case.
Turning to `COc1ccc(NC(=O)CC/C(CC(=O)c2ccco2)=N/NC(N)=S)cc1`, the TGI in experiment [2], in experiment [3], in experiment [4], in experiment [5], in experiment [6] and in [7] was over 100 µM in each case.
As to `O=c1c2ccccc2nc(/C=C(\O)c2ccncc2)n1-c1ccc(Cl)cc1`, the TGI in experiment [1], in experiment [2], in experiment [3], in experiment [4], in [5] and in [7] was over 100 µM in each case.
